Laboratory results from patent publication US20230295259A1 (Protagonist Therapeutics, Inc., priority 2020, published 2023).
Starred links: 1 amine or outer side, 2 acyl side, 3 side chain; linkers in the order of their positions; H or OH if unused. Positions of bridges follow the written chain, without caps; N, C: chain ends. Non-standard residues stand in square brackets, D forms with d. Residues, ends and D or L forms follow the SMILES beside them. Groups on a side chain read outwards from the residue. ξ: configuration not given here. *: point of attachment. X11 = NCCCC[C@@H](N[*:2])C(=O)C[C@@H](CS[*:1])C(N)=O; C18 diacid = O=C(O)CCCCCCCCCCCCCCCCC(=O)*; Dip = N[C@H](C(=O)O)C(c1ccccc1)c1ccccc1; X10 = CCC(=O)CC[C@H](N[*:1])C(=O)[*:2]; X9 = O=C([C@@H](N[*:1])SC[*:3])[*:2]; Aic = NC1(C(=O)O)Cc2ccccc2C1; hLeu = CC(C)CC[C@H](N)C(=O)O; ξIle = CC[C@H](C)C(N)C(=O)O; Isovaleryl = CC(C)CC(=O)*; Dap = NC[C@H](N)C(=O)O; AEEA = NCCOCCOCC(=O)O

What follows are molecules tested against T1, human ferroportin (Homo sapiens, UniProt Q9NP59) (assay: FPN activity assay: internalization/degradation of ferroportin-GFP in stably transfected HEK293 cells (decrease in GFP fluorescence)). Details: Table 2A; HEK293 cells expressing human ferroportin-GFP, at least 18 hours incubation.
T1 construct: expressed in transfected cells
T1 sequence (Q9NP59 1-571): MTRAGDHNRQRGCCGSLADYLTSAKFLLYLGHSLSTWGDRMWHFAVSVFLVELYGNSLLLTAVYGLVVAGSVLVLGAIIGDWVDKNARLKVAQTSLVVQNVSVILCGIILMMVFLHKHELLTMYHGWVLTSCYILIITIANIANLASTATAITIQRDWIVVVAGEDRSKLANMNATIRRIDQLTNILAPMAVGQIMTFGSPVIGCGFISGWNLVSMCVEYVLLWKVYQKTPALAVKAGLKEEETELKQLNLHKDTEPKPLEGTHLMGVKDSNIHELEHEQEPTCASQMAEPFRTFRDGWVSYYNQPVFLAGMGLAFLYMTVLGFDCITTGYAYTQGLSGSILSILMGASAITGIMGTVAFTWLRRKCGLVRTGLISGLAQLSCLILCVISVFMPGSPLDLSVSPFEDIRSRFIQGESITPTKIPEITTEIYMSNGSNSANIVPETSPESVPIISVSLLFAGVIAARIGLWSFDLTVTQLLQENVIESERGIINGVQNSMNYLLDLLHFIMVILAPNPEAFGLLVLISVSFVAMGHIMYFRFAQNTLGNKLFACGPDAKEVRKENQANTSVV
Assay type: cell-based
Description: Following internalization, the ferroportin protein is degraded.
A retro inverse peptide is a peptide with a reversed sequence in all D amino acids. An example is that Hy-Glu-Thr-His-NH2 becomes Hy-DHis-DThr-DGlu-NH2. The EC50 of these reference compounds for ferroportin internalization/degradation was determined according to the FPN activity assay described above. These peptides served as control standards.
These values were determined as described herein.

In order of rising EC50:
1. Isovaleric Acid-E-T-H-[Dpa]-P-[Cys]-I-[Lys(2Peg20K)]-[bhPhe]-[Lys(2Peg11′_Palm)]-R-[Cys]-NH2 [Compound 50]  0.00331 µM
2. Isovaleric Acid-E-T-H-[Dpa]-P-[Cys]-I-[Lys(Ahx_PEG20K)]-[bhPhe]-R-[Cys]-NH2 [Compound 51]  0.103 µM

Same assay, conditions: Table 2B; HEK293 cells expressing human ferroportin-GFP, at least 18 hours incubation

For “Isovaleric Acid-E-T-H-[Dpa]-P—C—I-[Lys(PEG12_Palm)]-[bhPhe]-[Lys(PEG40KB)]-R—C—NH2 [Compound 295]”, the EC50 was 1.78 µM.

Same assay, conditions: Table 2D (Illustrative Monomer Hepcidin Analogues); ferroportin-GFP HEK293 cells; read-out: IC50: FPN internalisation

In order of rising DC50:
1. CCC(=O)CC[C@H](NC(=O)CC(C)C)C(=O)N[C@H](C(=O)N[C@@H](Cc1cnc[nH]1)C(=O)N[C@H](C(=O)N1CCC[C@H]1C(=O)N[C@H]1CSSC[C@@H](C(N)=O)CC(=O)[C@@H](CCCCN)NC(=O)[C@H](CCC(C)C)NC(=O)[C@H](CCCCNC(=O)COCCOCCNC(=O)COCCOCCNC(=O)[C@H](CN)NC(=O)CCCCCCCCCCCCCCCCC(=O)O)NC(=O)[C@H]([C@@H](C)CC)NC1=O)C(c1ccccc1)c1ccccc1)[C@@H](C)O [Compound 509] (Isovaleryl-[X10]TH[Dip]PCIK([AEEA-AEEA-Dap-C18 diacid])[hLeu]; linker 6-C via X11)  0.0206 µM
2. CC[C@H](C)C1NC(=O)[C@@H](NC(=O)[C@@H]2CCCN2C(=O)[C@@H](NC(=O)[C@H](Cc2cnc[nH]2)NC(=O)[C@@H](NC(=O)[C@H](CCC(=O)OC)NC(=O)CC(C)C)[C@@H](C)O)C(c2ccccc2)c2ccccc2)SCSC[C@@H](C(N)=O)NC(=O)[C@@H](CCCCN)NC(=O)C2(Cc3ccccc3C2)NC(=O)[C@H](CCCCNC(=O)COCCOCCNC(=O)COCCOCCNC(=O)[C@H](CN)NC(=O)CCCCCCCCCCCCCCCCC(=O)O)NC1=O (some centres unmarked) [Compound 506] (Isovaleryl-E(OMe)TH[Dip]P[X9][ξIle]K([AEEA-AEEA-Dap-C18 diacid])[Aic][dK]C-NH2; thioether 6-11)  0.0313 µM
3. COC(=O)CC[C@H](NC(=O)CC(C)C)C(=O)N[C@H](C(=O)N[C@@H](Cc1cnc[nH]1)C(=O)N[C@H](C(=O)N1CCC[C@H]1C1CSSC[C@@H](C(N)=O)NC(=O)[C@@H](CCCCN)NC(=O)C[C@H](Cc2ccccc2)NC(=O)[C@H](CCCCNC(=O)COCCOCCNC(=O)COCCOCCNC(=O)[C@H](CN)NC(=O)CCCCCCCCCCCCCCCCC(=O)O)NC(=O)C2(CCCCC2)NC1=O)C(c1ccccc1)c1ccccc1)[C@@H](C)O (some centres unmarked) [Compound 512]  0.0374 µM

What follows are molecules tested on LAD2 cells (assay: not given). Details: not given.
Assay type: cell-based, human
Excerpt: In anaphylactoid reactions, the main mechanism involves the direct stimulation of mast cells or basophils, leading to the release of anaphylactic mediators such as histamine and β-hexosaminidase. A recent study by McNeil et al. (McNeil B D et al., 2015) reported that MrgprX2, a specific membrane receptor on human mast cells, induces anaphylactoid reactions. The LAD2 (Laboratory of Allergic Diseases 2) human mast cell line, derived from human mast cell sarcoma/leukemia (Kirshenbaum et al., 2003), is commonly employed to study anaphylactoid reactions, because its biological properties are identical to those of primary human mast cells, including the overexpression of the MrgprX2 receptor and sensitivity towards degranulating peptides (Kulka et al., 2008). The release of anaphylactic mediators such as f-hexosaminidase, is assessed by fluorometric quantification.
On the day of the assay, serial dilutions of compounds were added to LAD2 cells plated at 20000 cells/well in a 96-well plate. After incubation for 30 minutes, the amount of β-hexosaminidase released into the supernatants and in cell lysates was quantified using the fluorogenic substrate 4-methylumbelliferyl-N-acetyl-b-D-glucosaminide. Dose-response curves were generated by plotting the % of β-hexosaminidase release (y-axis) against the concentrations of peptides tested (x-axis). […]. (Table 2D).

Compared with CC[C@H](C)C1NC(=O)[C@@H](NC(=O)[C@@H]2CCCN2C(=O)[C@@H](NC(=O)[C@H](Cc2cnc[nH]2)NC(=O)[C@@H](NC(=O)[C@H](CCC(=O)O)NC(=O)CC(C)C)[C@@H](C)O)C(c2ccccc2)c2ccccc2)CSSC[C@@H](C(N)=O)NC(=O)[C@@H](CCCCN)NC(=O)C[C@H](Cc2ccccc2)CC(=O)C(CCCCNC(=O)CCOCCOCCOCCOCCOCCOCCOCCOCCOCCOCCOCCOCCNC(=O)CCCCCCCCCCCCCCCCC(=O)O)NC1=O (some centres unmarked) [Compound 113, Isovaleric Acid-E-T-H-[Dpa]-P-[Cys]-I-[Lys(2Peg11′_C18_Diacid)]-[bhPhe]-[(D)Lys]-[Cys]-NH2], CC[C@H](C)[C@@H]1NC(=O)[C@@H](NC(=O)[C@@H]2CCCN2C(=O)[C@@H](NC(=O)[C@H](Cc2cnc[nH]2)NC(=O)[C@@H](NC(=O)[C@H](CCC(=O)O)NC(=O)CC(C)C)[C@@H](C)O)C(c2ccccc2)c2ccccc2)CSSCC(C(N)=O)NC(=O)[C@@H](CCCCNC(=O)CCOCCOCCOCCOCCOCCOCCOCCOCCOCCOCCOCCOC)NC(=O)C[C@H](Cc2ccccc2)NC(=O)[C@H](CCCCNC(=O)COCCOCCNC(=O)COCCOCCNC(=O)CCCCCNC(=O)CCCCCCCCCCCCCCCCC(C)=O)NC1=O (some centres unmarked) [Compound 255, Isovaleric Acid-E-T-H-[Dpa]-P—C—I-[Lys(1PEG2_1PEG2_Ahx_C18_Diacid)]-[bhPhe]-[(D)Lys(PEG11_OMe)]—C—NH2] is higher in EC50: 27 µM for the first, greater than 100 µM for the second. The first is the more potent here.

CC[C@H](C)[C@@H]1NC(=O)[C@@H](NC(=O)[C@@H]2CCCN2C(=O)[C@@H](NC(=O)[C@H](Cc2cnc[nH]2)NC(=O)[C@@H](NC(=O)[C@H](CCC(=O)O)NC(=O)CC(C)C)[C@@H](C)O)C(c2ccccc2)c2ccccc2)CSSC[C@@H](C(N)=O)NC(=O)[C@@H](CCCCN)NC(=O)C[C@H](Cc2ccccc2)NC(=O)[C@H](CCCCNC(=O)COCCOCCNC(=O)COCCOCCNC(=O)CC[C@H](NC(=O)CCCCCCCCCCCCCCCCC(=O)O)C(=O)O)NC1=O [Compound 107, Isovaleric Acid-E-T-H-[Dpa]-P-[Cys]-I-[Lys(1Peg2_1Peg2_IsoGlu_C18_Diacid)]-[bhPhe]-[(D)Lys]-[Cys]-NH2] and CCCCCCCCCCCCCCCC(=O)NCCCCCC(=O)NCCCC[C@@H]1NC(=O)C[C@H](Cc2ccccc2)NC(=O)[C@@H](CCCCNC(=O)CCOCCOCCOCCOCCOCCOCCOCCOCCOCCOCCOCCOC)NC(=O)[C@H](C(C)CC)NC(=O)C(NC(=O)[C@@H]2CCCN2C(=O)[C@@H](NC(=O)[C@H](Cc2cnc[nH]2)NC(=O)[C@@H](NC(=O)[C@H](CCC(=O)O)NC(=O)CC(C)C)[C@@H](C)O)C(c2ccccc2)c2ccccc2)CSSC[C@@H](C(N)=O)NC(=O)[C@@H](CCCCNC(=O)CCOCCOCCOCCOCCOCCOCCOCCOCCOCCOCCOCCOC)NC1=O (some centres unmarked) [Compound 19, Isovaleric Acid-E-T-H-[Dpa]-P-[Cys]-I-[(D)Lys(2Peg11′_OMe)]-[bhPhe]-[Lys(Ahx_Palm)]-[(D)Lys(2Peg11′_OMe)]-[Cys]-NH2] cannot be ordered by EC50: greater than 33 µM for the first, greater than 100 µM for the second.

Same assay, conditions: LAD2 mast cells, β-hexosaminidase release, 30 minutes incubation; read-out: EC50: LAD2

“Isovaleric Acid-E-T-H-[Dpa]-P—C—I-[Lys(PEG4_IsoGlu_C18_Diacid)]-[bhF]-[(D)Lys]-C—NH2 [Compound 239]” and “Isovaleric Acid-E-T-H-[Dpa]-P—C—I-[Lys(1PEG2_1PEG2_IsoGlu_C18_Diacid)]-[bhPhe]-[(D)Lys]-[Pen]-NH2 [Compound 281]” cannot be ordered by EC50: greater than 100 µM for the first, greater than 100 µM for the second.

Going from “Isovaleric Acid-[Glu_OMe]-T-H-[Dpa]-P—C—I-[Lys(1PEG2_1PEG2_Ahx_C18_Diacid)]-[bhPhe]-[(D)Lys]-C—NH2 [Compound 277]” to “Isovaleric Acid-E-T-H—F—P—C—I-[Lys(1PEG2_1PEG2_Ahx_C18_Diacid)]-F-E-P—R—S—K-G-C—K—NH2 [Compound 221]”, the EC50 rises from 11.7 µM to greater than 100 µM.

“Isovaleric Acid-E-T-H—F—P—C—I-[Lys(1PEG2_1PEG2_IsoGlu_C18_Diacid)]-F-E-P—R—S—K-G-C—NH2 [Compound 206]” and “Isovaleric Acid-E-T-H-[Dpa]-P—C—I-[Lys(1PEG2_1PEG2_IsoGlu_C12_Diacid)]-[bhPhe]-[(D)Lys]-C—NH2 [Compound 234]” cannot be ordered by EC50: greater than 100 µM for the first, greater than 100 µM for the second.

First: Isovaleric Acid-E-T-H—F—P—C—I-[Lys(IsoGlu_Palm)]-F-E-P—R-S-G-C—NH2 [Compound 226]
Second: Isovaleric Acid-E-T-H-[Dpa]-P—C—I-[Lys(1PEG2_1PEG2_IsoGlu_C16_Diacid)]-[bhPhe]-[(D)Lys]-C—NH2 [Compound 232]
The EC50 of the first is lower: 15.7 µM for the first, greater than 100 µM for the second.

Going from “Isovaleric Acid-E-T-H—F—P—C—I-[Lys(Ahx_Palm)]-F-E-P—R—S—K-G-C—K—NH2 [Compound 223]” to “Isovaleric Acid-E-T-H—F—P—C—I-[Lys(1PEG2_1PEG2_IsoGlu_C18_Diacid)]-F-E-P—R—S—K-G-C—K—NH2 [Compound 220]”, the EC50 rises from 0.7 µM to greater than 33 µM. The first is the more potent here.

Going from “Isovaleric Acid-E-T-H-[Dpa]-P—C—I-[Lys(1PEG2_1PEG2_Ahx_C18_Diacid)]-[bhPhe]-[(D)Lys]-[Pen]-NH2 [Compound 280]” to “Isovaleric Acid-E-T-H-[Dpa]-P—C—I-[Lys(1PEG2_1PEG2_1PEG2_C18_Diacid)]-[bhPhe]-[(D)Lys]-C—NH2 [Compound 254]”, the EC50 rises from 24.3 µM to greater than 33 µM. The first is the more potent here.

“Isovaleric Acid-E-T-H-[Dpa]-P—C—I-[Lys(PEG12_IsoGlu_C18_Diacid)]-[bhPhe]-[(D)Lys(PEG11_OMe)]—C—NH2 [Compound 292]” and “Isovaleric Acid-E-T-H-[Dpa]-P—C—I-[Lys(PEG12_IsoGlu_Palm)]-[bhPhe]-[(D)Lys(PEG11_OMe)]—C—NH2 [Compound 291]” cannot be ordered by EC50: greater than 100 µM for the first, greater than 100 µM for the second.

“Isovaleric Acid-E-T-H-[Dpa]-P—C—I-[Lys(1PEG2_1PEG2_IsoGlu_C14_Diacid)]-[bhPhe]-[(D)Lys]-C—NH2 [Compound 233]” and “Isovaleric Acid-E-T-H-[Dpa]-P—C—I-[Lys(PEG4_PEG4_IsoGlu_C18_Diacid)]-[bhF]-[(D)Lys]-C—NH2 [Compound 237]” cannot be ordered by EC50: greater than 100 µM for the first, greater than 100 µM for the second.
